Source: US8426420B2, “Heterocyclic pyrazole-carboxamidesas P2Y12 antagonists” (Sanofi, priority 2007, dated 2013)
pIC50: −log10 of the molar value.

Experiments:
human P2Y12 receptor = human P2Y12 receptor (Homo sapiens, UniProt Q9H244); experiment: Human P2Y12 recombinant cell membrane binding assay with 33P 2MeS-ADP; details: competition against 33P 2MeS-ADP, membranes of CHO cells with recombinant human P2Y12 receptor
Procedure: The ability of the compounds of the formula Ito inhibit the P2Y12 receptor can be assessed by determining the concentration of the compound of the formula I that binds to the human P2Y12 Recombinant Cell Membrane Binding Assay with 33P 2MeS-ADP.
Human P2Y12 Recombinant Cell Membrane Binding Assay
The ability of a test compound to bind to the P2Y12 receptor was evaluated in a recombinant cell membrane binding assay. In this competitive binding assay, the test compound competed against a radiolabeled agonist for binding to the P2Y12 receptor, expressed on the cell membrane. Inhibition of binding of the labeled material was measured and correlated to the amount and potency of the test compound. This binding assay is a modification of the procedure described by Takasaki, J. et. al, Mol. Pharmacol., 2001, Vol. 60, pg. 432. A membrane preparation was prepared from Chinese Hamster Ovary (CHO) cells with recombinant expression of the human P2Y12 receptor according to standard procedures as a source of P2Y12.
To a 96-well microtiterplate the following were added: a) 24 μl of assay buffer (10 mM HEPES, 138 mM NaCl, […] KCl, 12 mM NaHCO3, 1 mM EDTA-Na, 0.1% BSA, pH 7.4) b) 1 μL compound in DMSO c) 50 μL P2Y12 CHO membrane (20 μg/ml) and after 15 min at RT d) 25 μL of 1.61 nM 33P 2MeS-ADP (Perkin Elmer NEN custom synthesis, specific activity ˜2100 Ci/mmol) made in assay buffer.
After 20 min incubation at RT samples were transferred to 96-well microtiter filterplates (Millipore HTS GF/B), pre-wetted for 20 min with 300 μL of stop buffer (10 mM HEPES, 138 mM NaCl pH 7.4) and then filtered through completely with a Millipore plate vacuum. Next, wells were washed four times with 400 μl/well of stop buffer on a plate vacuum. The plate was disassembled and allowed to air dry overnight with the filter side up over night. The filter plates were snapped into adapter plates and 0.1 mL of Microscint 20 Scintillation Fluid (Perkin Elmer #6013621) was added to each well. The top of the filterplate was sealed with plastic plate covers. The sealed filterplate were incubated 2 hours at RT. A Microbeta Scintillation Counter was used to measure counts.
Compounds were diluted as 10 mM DMSO stocks and tested in a four-point, five-fold dilution series run in triplicate beginning at 10 μM, final concentration. Data were analyzed using a four-parameter curve fit with a fixed minimum and maximum experimentally defined as the average positive and negative controls on each plate.

[1] = test system: human platelet rich plasma; experiment: Inhibition of human platelet aggregation, 96-well assay; type: cell-based; details: Homo sapiens, Platelet, 20 min
Procedure: Inhibition of Human Platelet Aggregation
Alternatively to a binding assay which measures a compound's ability to bind to the P2Y12 receptor, the effect on cellular function was also determined. This ability of the compound was evaluated in two platelet aggregation assays: in 96-well plates and with the “Born”-method using single cuvettes.
Whole blood was collected from healthy volunteers using 20 ml syringes containing 2 ml of ACD-A Aqua-Citrat-Dextrose-A, Fresenius). The anticoagulated whole blood was transferred into 15 ml polypropylene conical tubes (10 ml per tube). The tubes were centrifuged for 15 minutes at 150×g at RT without using the centrifuge brake. This procedure leads to a pellet of cellular components and a supernatant of platelet rich plasma (PRP). The PRP layer was collected from each tube and pooled for each donor. To avoid carry over of cellular components following centrifugation, approximately 5 ml of PRP was left in the tube. The platelet concentration was determined using a Coulter Counter.
The 15 ml tubes containing the pellet of cellular components were centrifuged again for 10 minutes at 1940×g. This pelleted out most particulate blood constituents remaining, leaving a layer of Platelet Poor Plasma (PPP). The PPP was collected for each donor. The PRP layer, previously set aside, was diluted with PPP to a final concentration of approximately 3×E8 platelets/ml with the PPP.
The human platelet aggregation assay is performed in 96-well plates using a microtiter plate reader (SpectraMax Plus 384 with SoftMax Pro software from Molecular Devices). In the plate 15 μl of test compound at 10× final concentration in NaCl is mixed with 120 μl fresh PRP and incubated for 5 minutes. Following that incubation period, 15 μl of 40 μM ADP is added to the reaction mix. This addition of ADP is sufficient to induce aggregation in the absence of an inhibitor. The plates are then transferred to the microplate reader and aggregation is measured over 20 minutes. The instrument settings include:
Absorbance at 650 nm, run time 20 minutes with readings in 1-minute intervals and 50 seconds shaking between readings all performed at 37° C.

Sequence of human P2Y12 receptor (Q9H244 whole entry): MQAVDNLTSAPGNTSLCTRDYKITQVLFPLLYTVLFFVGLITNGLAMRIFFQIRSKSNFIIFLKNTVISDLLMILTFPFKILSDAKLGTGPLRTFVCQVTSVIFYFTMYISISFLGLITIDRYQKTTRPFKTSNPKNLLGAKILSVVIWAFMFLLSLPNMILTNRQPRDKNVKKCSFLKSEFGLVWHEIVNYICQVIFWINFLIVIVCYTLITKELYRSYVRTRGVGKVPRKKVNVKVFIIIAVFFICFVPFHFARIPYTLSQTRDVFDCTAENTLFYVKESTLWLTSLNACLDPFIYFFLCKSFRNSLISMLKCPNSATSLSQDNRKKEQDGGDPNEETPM

Compound: CCOC(=O)N1CCN(C(=O)[C@H](CC(=O)O)NC(=O)c2cc(OCC(=O)N3CCC[C@H]3C(=O)NCCF)n(-c3cccc(F)c3)n2)CC1 [Example 78, 4-((S)-3-Carboxy-2-{[5-[2-((S)-2-(2-fluoroethylcarbamoyl)-pyrrolidin-1-yl)-2-oxo-ethoxy]-1-(3-fluoro-phenyl)-1H-pyrazole-3-carbonyl]-amino}-propionyl)-piperazine-1-carboxylic acid ethyl ester]
- pIC50 (human P2Y12 receptor): 6.72

Compound: CCOC(=O)N1CCN(C(=O)[C@H](CC(=O)O)NC(=O)c2cc(OCC(=O)N3CCC[C@H]3C(=O)NCC(F)F)n(-c3cccc(F)c3)n2)CC1 [Example 79, 4-((S)-3-Carboxy-2-{[5-[2-((S)-2-(2,2-difluoroethylcarbamoyl)-pyrrolidin-1-yl)-2-oxo-ethoxy]-1-(3-fluoro-phenyl)-1H-pyrazole-3-carbonyl]-amino}-propionyl)-piperazine-1-carboxylic acid ethyl ester]
- pIC50 (human P2Y12 receptor): 6.84

Compound: CCOC(=O)N1CCN(C(=O)[C@H](CCC(=O)O)NC(=O)c2cc(OCC(=O)N3CCC[C@H]3C(=O)NCCSC)n(-c3ccccc3)n2)CC1 [Example 3, 4-{(S)-4-Carboxy-2-[(5-{2-[(S)-2-(2-methylsulfanyl-ethylcarbamoyl)-pyrrolidin-1-yl]-2-oxo-ethoxy}-1-phenyl-1H-pyrazole-3-carbonyl)-amino]-butyryl}-piperazine-1-carboxylic acid ethyl ester]
- pIC50 (human P2Y12 receptor): 6.74

Compound: CCCOC(=O)CC[C@H](NC(=O)c1cc(OCC(=O)N2CCC[C@H]2C(=O)NC2CCC2)n(-c2ccccc2)n1)C(=O)N1CCN(C(=O)OCC)CC1 [Example 133, 4-[(S)-2-({5-[2-((S)-2-Cyclobutylcarbamoyl-pyrrolidin-1-yl)-2-oxo-ethoxy]-1-phenyl-1H-pyrazole-3-carbonyl}-amino)-4-propoxycarbonyl-butyryl]-piperazine-1-carboxylic acid ethyl ester]
- pIC50 (human P2Y12 receptor): 7.38

Compound: CCOC(=O)N1CCN(C(=O)[C@H](CCNS(C)(=O)=O)NC(=O)c2cc(OCC(=O)N3CCC[C@H]3C(=O)NC3CCC3)n(-c3ccccc3)n2)CC1 [Example 94, 4-[(S)-2-({5-[2-((S)-2-Cyclobutylcarbamoyl-pyrrolidin-1-yl)-2-oxo-ethoxy]-1-phenyl-1H-pyrazole-3-carbonyl}-amino)-4-methanesulfonylamino-butyryl]-piperazine-1-carboxylic acid ethyl ester]
- pIC50 (human P2Y12 receptor): 7.23

Compound: CCCCOC(=O)N1CCN(C(=O)[C@H](C)NC(=O)c2cc(OCC(=O)N3CCC[C@H]3C(=O)NC3CCC3)n(-c3ccccc3)n2)CC1 [Example 186, 4-[(S)-2-({5-[2-((S)-2-Cyclobutylcarbamoyl-pyrrolidin-1-yl)-2-oxo-ethoxy]-1-phenyl-1H-pyrazole-3-carbonyl}-amino)-propionyl]-piperazine-1-carboxylic acid butyl ester]
- pIC50 (human P2Y12 receptor): 7.80

Compound: CCOC(=O)N1CCN(C(=O)[C@H](CCC(=O)O)NC(=O)c2cc(OCC(=O)N3CCC[C@H]3c3ccccc3)n(-c3ccccc3)n2)CC1 [Example 170, 4-[(S)-4-Carboxy-2-({5-[2-oxo-2-((S)-2-phenyl-pyrrolidin-1-yl)-ethoxy]-1-phenyl-1H-pyrazole-3-carbonyl}-amino)-butyryl]-piperazine-1-carboxylic acid ethyl ester]
- pIC50 (human P2Y12 receptor): 7.07

Compound: CCOC(=O)N1CCN(C(=O)[C@H](CCC(=O)OCCC(C)OC)NC(=O)c2cc(OCC(=O)N3CCC[C@H]3C(=O)NC3CCC3)n(-c3ccccc3)n2)CC1 (stereo partly drawn) [Example 205, 4-[(S)-2-({5-[2-((S)-2-Cyclobutylcarbamoyl-pyrrolidin-1-yl)-2-oxo-ethoxy]-1-phenyl-1H-pyrazole-3-carbonyl}-amino)-4-(3-methoxy-butoxycarbonyl)-butyryl]-piperazine-1-carboxylic acid ethyl ester]
- pIC50 [1]: 6.34

Compound: CCOC(=O)N1CCN(C(=O)[C@H](CC(=O)O)NC(=O)c2cc(OCC(=O)N3CCC[C@H]3C(=O)NCCF)n(-c3ccccc3)n2)CC1 [Example 59, 4-{(S)-3-Carboxy-2-[(5-{2-[(S)-2-(2-fluoro-ethylcarbamoyl)-pyrrolidin-1-yl]-2-oxo-ethoxy}-1-phenyl-1H-pyrazole-3-carbonyl)-amino]-propionyl}-piperazine-1-carboxylic acid ethyl ester]
- pIC50 [1]: 6.20

Compound: CCOC(=O)N1CCN(C(=O)[C@H](CCC(=O)OCC2(CC)COC2)NC(=O)c2cc(OCC(=O)N3CCC[C@H]3C(=O)NC3CCC3)n(-c3ccccc3)n2)CC1 [Example 204, 4-[(S)-2-({5-[2-((S)-2-Cyclobutylcarbamoyl-pyrrolidin-1-yl)-2-oxo-ethoxy]-1-phenyl-1H-pyrazole-3-carbonyl}-amino)-4-(3-ethyl-oxetan-3-ylmethoxycarbonyl)-butyryl]-piperazine-1-carboxylic acid ethyl ester]
- pIC50 [1]: 6.14

Compound: CCOC(=O)N1CCN(C(=O)[C@H](CCC(=O)O)NC(=O)c2cc(OCC(=O)N3CCN(C(C)=O)CC3)n(-c3ccccc3)n2)CC1 [Example 27, 4-[(S)-2-({5-[2-(4-Acetyl-piperazin-1-yl)-2-oxo-ethoxy]-1-phenyl-1H-pyrazole-3-carbonyl}-amino)-4-carboxy-butyryl]-piperazine-1-carboxylic acid ethyl ester]
- pIC50 [1]: 6.12

Compound: CCOC(=O)N1CCN(C(=O)[C@H](CC(C)C)NC(=O)c2cc(OCC(=O)N3CCC[C@H]3C(=O)NC3CCC3)n(-c3ccccc3)n2)CC1 [Example 215, 4-[(S)-2-({5-[2-((S)-2-Cyclobutylcarbamoyl-pyrrolidin-1-yl)-2-oxo-ethoxy]-1-phenyl-1H-pyrazole-3-carbonyl}-amino)-4-methyl-pentanoyl]-piperazine-1-carboxylic acid ethyl ester]
- pIC50 [1]: 6.02

Compound: O=C(O)CC[C@H](NC(=O)c1cc(OCC(=O)N2CCC[C@H]2C(=O)NC2CCC2)n(-c2ccccc2)n1)C(=O)N1CCN(C(=O)Oc2ccccc2)CC1 [Example 156, 4-[(S)-4-Carboxy-2-({5-[2-((S)-2-cyclobutylcarbamoyl-pyrrolidin-1-yl)-2-oxo-ethoxy]-1-phenyl-1H-pyrazole-3-carbonyl}-amino)-butyryl]-piperazine-1-carboxylic acid phenyl ester]
- pIC50 [1]: 5.97

Compound: O=C(O)CC[C@H](NC(=O)c1cc(OCC(=O)N2CCC[C@H]2C(=O)NC2CCC2)n(-c2ccccc2)n1)C(=O)N1CCN(C(=O)c2ccccc2)CC1 [Example 104, (S)-5-(4-Benzoyl-piperazin-1-yl)-4-({5-[2-((S)-2-cyclobutylcarbamoyl-pyrrolidin-1-yl)-2-oxo-ethoxy]-1-phenyl-1H-pyrazole-3-carbonyl}-amino)-5-oxo-pentanoic acid]
- pIC50 [1]: 5.91

Compound: CCOC(=O)N1CCN(C(=O)[C@H](CCC(=O)O)NC(=O)c2cc(O[C@@H](C)C(=O)N3CCC[C@H]3C(=O)NCC3CC3)n(-c3ccccc3)n2)CC1 [Example 68, 4-[(S)-4-Carboxy-2-({5-[(S)-2-((S)-2-cyclopropylmethylcarbamoyl-pyrrolidin-1-yl)-1-methyl-2-oxo-ethoxy]-1-phenyl-1H-pyrazole-3-carbonyl}-amino)-butyryl]-piperazine-1-carboxylic acid ethyl ester]
- pIC50 [1]: 7.15
